Assay results taken from ChEMBL document CHEMBL4396882, “2-Aminothiazole-4-carboxamides Enhance Readthrough of Premature Termination Codons by Aminoglycosides” (2019).
Activity calls are given as the source filed them. No cut-off for these calls is given here.

tested on: HDQ-P1; assay: Cytotoxicity in human HDQ-P1 cells assessed as reduction in cell viability incubated for 72 hrs in presence of G418 by MTT assay; format: functional, cell-based

SMILES | Activity
CSc1ccc(NC(=O)c2csc(Nc3cccc4[nH]ncc34)n2)cc1 | Active
O=C(Nc1ccc(F)cc1)c1csc(Nc2cccc3[nH]ncc23)n1 | Active

tested on: HDQ-P1; assay: Cytotoxicity in human HDQ-P1 cells assessed as reduction in cell viability at 3 uM incubated for 72 hrs by MTT assay relative to control; format: functional

SMILES | Activity [%]
CSc1ccc(NC(=O)c2csc(Nc3cccc4[nH]ncc34)n2)cc1 | 60
O=C(Nc1ccc(F)cc1)c1csc(Nc2cccc3[nH]ncc23)n1 | 42

tested on: HDQ-P1; assay: Induction of P53 expression in human HDQ-P1 cells assessed as enrichment ratio at 10 uM incubated for 72 hrs by automated electrophoresis western analysis; format: functional

SMILES | Ratio
CSc1ccc(NC(=O)c2csc(Nc3cccc4[nH]ncc34)n2)cc1 | 0.1
O=C1NC(=O)c2cc(NCc3c(Cl)cccc3Cl)ccc21 | 0.1
O=C(Nc1ccc(F)cc1)c1csc(Nc2cccc3[nH]ncc23)n1 | 0.3

tested on: HDQ-P1; assay: Cytotoxicity in human HDQ-P1 cells assessed as reduction in cell viability at 1 uM incubated for 72 hrs by MTT assay; format: functional, cell-based

SMILES | Activity
CSc1ccc(NC(=O)c2csc(Nc3cccc4[nH]ncc34)n2)cc1 | inactive
O=C(Nc1ccc(F)cc1)c1csc(Nc2cccc3[nH]ncc23)n1 | inactive

tested on: HDQ-P1; assay: Induction of P53 expression in human HDQ-P1 cells assessed as enrichment ratio at 30 uM incubated for 72 hrs by automated electrophoresis western analysis; format: functional

SMILES | Ratio
O=C1NC(=O)c2cc(NCc3c(Cl)cccc3Cl)ccc21 | 0.1

tested on: HDQ-P1; assay: Induction of P53 expression in human HDQ-P1 cells assessed as enrichment ratio at 10 uM incubated for 72 hrs in presence of 50 uM G418 by Hoechst 33323 staining based fluorescence assay; format: functional

SMILES | Ratio
COc1cc(NC(=O)c2csc(Nc3cccc4[nH]ncc34)n2)cc(OC)c1OC | 7.2
O=C(Nc1ccc2[nH]ncc2c1)c1csc(Nc2ccc3[nH]ccc3c2)n1 | 8
CSc1ccc(NC(=O)c2csc(Nc3cccc4[nH]ncc34)n2)cc1 | 20.1
O=C(Nc1ccc2c(c1)OCO2)c1csc(Nc2ccc3ncccc3c2)n1 | 10.7
O=C(Nc1ccccc1)c1csc(Nc2ccc3[nH]ncc3c2)n1 | 11.2
O=C(Nc1ccc2c(c1)OCCO2)c1csc(Nc2cccc3[nH]ncc23)n1 | 15.8
O=C(Nc1ccc2c(c1)OCCO2)c1csc(Nc2ccc3ncccc3c2)n1 | 8.7
O=C(Nc1ccc2c(c1)OCO2)c1cnc(Nc2ccc3[nH]ncc3c2)s1 | 19.2
COc1ccc(NC(=O)c2cnc(Nc3ccc4[nH]ncc4c3)s2)cn1 | 7.8
O=C(Nc1ccc(F)cc1)c1csc(Nc2cccc3[nH]ncc23)n1 | 23.3
O=C(Nc1ccc2c(c1)OCO2)c1csc(Nc2ccc3[nH]ncc3c2)n1 | 5.4
CSc1ccc(NC(=O)c2cnc(Nc3ccc4[nH]ncc4c3)s2)cc1 | 4.7
COc1ccc(NC(=O)c2csc(Nc3cccc4[nH]ncc34)n2)cn1 | 27.2
O=C(Nc1ccc2c(c1)OCCO2)c1csc(Nc2ccc(=O)[nH]c2)n1 | 7
COc1ccc(NC(=O)c2csc(Nc3cccc4[nH]ncc34)n2)cc1 | 5.9
O=C(Nc1ccc2[nH]ccc2c1)c1csc(Nc2ccc3[nH]ncc3c2)n1 | 23

tested on: HDQ-P1; assay: Induction of P53 expression in human HDQ-P1 cells assessed as enrichment ratio at 10 uM incubated for 72 hrs in presence of 50 uM G418 by automated electrophoresis western analysis; format: functional

SMILES | Ratio
COc1cc(NC(=O)c2csc(Nc3cccc4[nH]ncc34)n2)cc(OC)c1OC | 20.1
CSc1ccc(NC(=O)c2csc(Nc3cccc4[nH]ncc34)n2)cc1 | 7.2
O=C(Nc1ccc2c(c1)OCO2)c1csc(Nc2ccc3ncccc3c2)n1 | 10.7
O=C(Nc1ccc2c(c1)OCCO2)c1csc(Nc2cccc3[nH]ncc23)n1 | 15.8
O=C(Nc1ccc(F)cc1)c1csc(Nc2cccc3[nH]ncc23)n1 | 23.3
O=C(Nc1ccc2c(c1)OCCO2)c1csc(Nc2ccc(=O)[nH]c2)n1 | 2.3

tested on: HDQ-P1; assay: Effect on human HDQ-P1 cells assessed as increase in TP53 R213X mRNA level at 10 uM incubated for 72 hrs in presence of G418 by RT-qPCR analysis; format: functional, cell-based

SMILES | Activity
CSc1ccc(NC(=O)c2csc(Nc3cccc4[nH]ncc34)n2)cc1 | inactive
O=C(Nc1ccc(F)cc1)c1csc(Nc2cccc3[nH]ncc23)n1 | inactive

tested on: HDQ-P1; assay: Effect on human HDQ-P1 cells assessed as increase in TP53 R213X mRNA level at 10 uM incubated for 72 hrs by RT-qPCR analysis; format: functional, cell-based

SMILES | Activity
CSc1ccc(NC(=O)c2csc(Nc3cccc4[nH]ncc34)n2)cc1 | inactive
O=C(Nc1ccc(F)cc1)c1csc(Nc2cccc3[nH]ncc23)n1 | inactive

tested on: HDQ-P1; assay: Induction of P53 expression in human HDQ-P1 cells assessed as enrichment ratio at 30 uM incubated for 72 hrs in presence of 25 uM G418 by automated electrophoresis western analysis; format: functional

SMILES | Ratio
O=C1NC(=O)c2cc(NCc3c(Cl)cccc3Cl)ccc21 | 8.3

tested on: HDQ-P1; assay: Induction of P53 expression in human HDQ-P1 cells assessed as enrichment ratio at 3 uM incubated for 72 hrs in presence of 50 uM G418 by automated electrophoresis western analysis; format: functional

SMILES | Ratio
COc1cc(NC(=O)c2csc(Nc3cccc4[nH]ncc34)n2)cc(OC)c1OC | 8.2
CSc1ccc(NC(=O)c2csc(Nc3cccc4[nH]ncc34)n2)cc1 | 5.3
O=C(Nc1ccc2c(c1)OCO2)c1csc(Nc2ccc3ncccc3c2)n1 | 3.6
O=C(Nc1ccc2c(c1)OCCO2)c1csc(Nc2cccc3[nH]ncc23)n1 | 3.4
O=C(Nc1ccc(F)cc1)c1csc(Nc2cccc3[nH]ncc23)n1 | 13.1
O=C(Nc1ccc2c(c1)OCCO2)c1csc(Nc2ccc(=O)[nH]c2)n1 | 2.4

tested on: HDQ-P1; assay: Induction of P53 expression in human HDQ-P1 cells assessed as enrichment ratio at 3 uM incubated for 72 hrs in presence of 50 uM G418 by Hoechst 33323 staining based fluorescence assay; format: functional

SMILES | Ratio
COc1cc(NC(=O)c2csc(Nc3cccc4[nH]ncc34)n2)cc(OC)c1OC | 5.3
O=C(Nc1ccc2[nH]ncc2c1)c1csc(Nc2ccc3[nH]ccc3c2)n1 | 1.4
CSc1ccc(NC(=O)c2csc(Nc3cccc4[nH]ncc34)n2)cc1 | 8.2
O=C(Nc1ccc2c(c1)OCO2)c1csc(Nc2ccc3ncccc3c2)n1 | 3.5
O=C(Nc1ccccc1)c1csc(Nc2ccc3[nH]ncc3c2)n1 | 2.5
O=C(Nc1ccc2c(c1)OCCO2)c1csc(Nc2cccc3[nH]ncc23)n1 | 3.4
O=C(Nc1ccc2c(c1)OCCO2)c1csc(Nc2ccc3ncccc3c2)n1 | 1.6
O=C(Nc1ccc2c(c1)OCO2)c1cnc(Nc2ccc3[nH]ncc3c2)s1 | 1.2
COc1ccc(NC(=O)c2cnc(Nc3ccc4[nH]ncc4c3)s2)cn1 | 2.2
O=C(Nc1ccc(F)cc1)c1csc(Nc2cccc3[nH]ncc23)n1 | 13.1
O=C(Nc1ccc2c(c1)OCO2)c1csc(Nc2ccc3[nH]ncc3c2)n1 | 1.2
CSc1ccc(NC(=O)c2cnc(Nc3ccc4[nH]ncc4c3)s2)cc1 | 1.6
COc1ccc(NC(=O)c2csc(Nc3cccc4[nH]ncc34)n2)cn1 | 1.4
O=C(Nc1ccc2c(c1)OCCO2)c1csc(Nc2ccc(=O)[nH]c2)n1 | 3.8
COc1ccc(NC(=O)c2csc(Nc3cccc4[nH]ncc34)n2)cc1 | 1.6
O=C(Nc1ccc2[nH]ccc2c1)c1csc(Nc2ccc3[nH]ncc3c2)n1 | 1.3

tested on: HDQ-P1; assay: Induction of P53 expression in human HDQ-P1 cells assessed as enrichment ratio at 10 uM incubated for 72 hrs in presence of 25 uM G418 by automated electrophoresis western analysis; format: functional

SMILES | Ratio
CSc1ccc(NC(=O)c2csc(Nc3cccc4[nH]ncc34)n2)cc1 | 8.8
O=C1NC(=O)c2cc(NCc3c(Cl)cccc3Cl)ccc21 | 2.8
O=C(Nc1ccc(F)cc1)c1csc(Nc2cccc3[nH]ncc23)n1 | 25.7

tested on: HDQ-P1; assay: Induction of P53 expression in human HDQ-P1 cells assessed as enrichment ratio at 3 uM incubated for 72 hrs in presence of gentamicin by automated electrophoresis western analysis; format: functional

SMILES | Ratio
CSc1ccc(NC(=O)c2csc(Nc3cccc4[nH]ncc34)n2)cc1 | 10.8

tested on: HDQ-P1; assay: Ratio of enrichment ratio of test compound at 10 uM to enrichment ratio of CDX5-1 at 30 uM in human HDQ-P1 cells by automated electrophoresis western analysis; format: functional

SMILES | Ratio
CSc1ccc(NC(=O)c2csc(Nc3cccc4[nH]ncc34)n2)cc1 | 3
O=C(Nc1ccc(F)cc1)c1csc(Nc2cccc3[nH]ncc23)n1 | 3
